This is an account of results in publication doi:10.1101/2024.08.13.607785v1 (biorxiv, 2024).

Where two headings read alike, the source gives them in different places.

Holding throughout (test): biochemical
Holding throughout (design): species or system human cell line lysate

Experiment [1] addresses Mitogen-activated protein kinase kinase kinase kinase 5 ; MAP4K5 ; Q9Y4K4 (Homo sapiens, UniProt Q9Y4K4).
The target in experiment [2] is Tyrosine-protein kinase SYK ; SYK ; P43405 (Homo sapiens, UniProt P43405).
Experiment [3] has as its target Serine/threonine-protein kinase MARK2 ; MARK2 ; Q7KZI7 (Homo sapiens, UniProt Q7KZI7).
Experiment [4] concerns the target Mitogen-activated protein kinase 9 ; MAPK9 ; P45984 (Homo sapiens, UniProt P45984).
The target in experiment [5] is Isoform 2 of Focal adhesion kinase 1 ; PTK2 ; Q05397-2 (Homo sapiens, UniProt Q05397).
For experiment [6], the target named is Casein kinase I isoform gamma-2 ; CSNK1G2 ; P78368 (Homo sapiens, UniProt P78368).
The target of experiment [7] is RAC-gamma serine/threonine-protein kinase ; AKT3 ; Q9Y243 (Homo sapiens, UniProt Q9Y243).
Experiment [8] addresses Isoform 4 of Serine/threonine-protein kinase PAK 4 ; PAK4 ; O96013-4 (Homo sapiens, UniProt O96013).
In experiment [9] the target is Serine/threonine-protein kinase pim-2 ; PIM2 ; Q9P1W9 (Homo sapiens, UniProt Q9P1W9).
Experiment [10] has as its target Tyrosine-protein kinase Lyn ; LYN ; P07948 (Homo sapiens, UniProt P07948).
Experiment [11] addresses Tyrosine-protein kinase HCK ; HCK ; P08631 (Homo sapiens, UniProt P08631).
Experiment [12] deals with Interferon-induced, double-stranded RNA-activated protein kinase ; EIF2AK2 ; P19525 (Homo sapiens, UniProt P19525).
For experiment [13], the target named is Ephrin type-B receptor 4 ; EPHB4 ; P54760 (Homo sapiens, UniProt P54760).
For experiment [14], the target named is Activin receptor type-1 ; ACVR1 ; Q04771 (Homo sapiens, UniProt Q04771).
Experiment [15] addresses Serine/threonine-protein kinase PAK 4 ; PAK4 ; O96013 (Homo sapiens, UniProt O96013).
In experiment [16] the target is Serine/threonine-protein kinase 35 ; STK35 ; Q8TDR2 (Homo sapiens, UniProt Q8TDR2).
For experiment [17], the target named is Inhibitor of nuclear factor kappa-B kinase subunit epsilon ; IKBKE ; Q14164 (Homo sapiens, UniProt Q14164).
In experiment [18] the target is Inositol polyphosphate multikinase ; IPMK ; Q8NFU5 (Homo sapiens, UniProt Q8NFU5).
In experiment [19] the target is Isoform 2 of Protein-tyrosine kinase 2-beta ; PTK2B ; Q14289-2 (Homo sapiens, UniProt Q14289).
Experiment [20] has as its target Tyrosine-protein kinase Fes/Fps ; FES ; P07332 (Homo sapiens, UniProt P07332).
Experiment [21] addresses Proto-oncogene tyrosine-protein kinase receptor Ret ; RET ; P07949 (Homo sapiens, UniProt P07949).
In experiment [22] the target is 5'-AMP-activated protein kinase catalytic subunit alpha-2 ; PRKAA2 ; P54646 (Homo sapiens, UniProt P54646).
In experiment [23] the target is Serine/threonine-protein kinase ULK1 ; ULK1 ; O75385 (Homo sapiens, UniProt O75385).
The mark [24] stands for this setting: read-out: BAY-1251152 (10 µM) / %Intensity relative to DMSO.
[25] abbreviates: read-out: BAY-1143572 (10 µM) / %Intensity relative to DMSO.

Chain of Casein kinase I isoform gamma-2 ; CSNK1G2 ; P78368 (P78368 whole entry, canonical isoform): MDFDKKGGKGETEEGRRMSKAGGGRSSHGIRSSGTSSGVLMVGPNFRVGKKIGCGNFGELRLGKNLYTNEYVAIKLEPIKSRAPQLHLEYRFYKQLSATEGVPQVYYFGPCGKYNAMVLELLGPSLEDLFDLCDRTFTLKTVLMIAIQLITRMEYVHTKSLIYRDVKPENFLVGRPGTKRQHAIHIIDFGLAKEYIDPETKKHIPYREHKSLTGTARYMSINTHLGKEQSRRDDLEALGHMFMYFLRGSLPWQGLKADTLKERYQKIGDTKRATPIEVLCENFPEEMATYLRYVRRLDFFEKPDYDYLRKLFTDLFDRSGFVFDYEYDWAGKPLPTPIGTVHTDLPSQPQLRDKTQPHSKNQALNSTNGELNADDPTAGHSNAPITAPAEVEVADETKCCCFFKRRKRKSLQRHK
Chain of Activin receptor type-1 ; ACVR1 ; Q04771 (Q04771 whole entry): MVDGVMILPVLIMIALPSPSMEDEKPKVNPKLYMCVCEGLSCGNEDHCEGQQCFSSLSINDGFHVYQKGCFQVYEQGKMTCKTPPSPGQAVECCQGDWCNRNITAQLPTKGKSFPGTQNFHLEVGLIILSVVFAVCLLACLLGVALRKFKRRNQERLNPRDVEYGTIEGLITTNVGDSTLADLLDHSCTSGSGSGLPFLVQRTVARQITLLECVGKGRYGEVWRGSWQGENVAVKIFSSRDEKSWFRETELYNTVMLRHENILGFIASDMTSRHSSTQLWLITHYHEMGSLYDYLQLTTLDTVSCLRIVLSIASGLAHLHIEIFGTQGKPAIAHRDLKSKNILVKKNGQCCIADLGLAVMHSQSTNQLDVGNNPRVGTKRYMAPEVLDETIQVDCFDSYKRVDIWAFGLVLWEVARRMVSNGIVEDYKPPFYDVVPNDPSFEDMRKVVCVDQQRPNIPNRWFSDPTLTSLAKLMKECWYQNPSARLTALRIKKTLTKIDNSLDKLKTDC
Chain of Inositol polyphosphate multikinase ; IPMK ; Q8NFU5 (Q8NFU5 whole entry, canonical isoform): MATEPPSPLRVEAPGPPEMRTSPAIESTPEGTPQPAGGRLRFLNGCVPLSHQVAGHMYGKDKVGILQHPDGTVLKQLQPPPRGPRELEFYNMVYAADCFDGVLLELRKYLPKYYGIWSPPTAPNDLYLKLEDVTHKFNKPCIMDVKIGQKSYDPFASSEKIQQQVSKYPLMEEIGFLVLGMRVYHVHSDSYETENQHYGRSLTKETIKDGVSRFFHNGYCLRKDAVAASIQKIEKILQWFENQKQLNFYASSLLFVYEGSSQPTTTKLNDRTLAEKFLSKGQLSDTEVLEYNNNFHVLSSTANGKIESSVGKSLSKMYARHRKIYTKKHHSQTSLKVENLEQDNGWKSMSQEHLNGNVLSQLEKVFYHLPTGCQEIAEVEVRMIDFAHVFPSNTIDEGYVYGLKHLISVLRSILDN
Chain of Serine/threonine-protein kinase MARK2 ; MARK2 ; Q7KZI7 (Q7KZI7 whole entry, one chain of several): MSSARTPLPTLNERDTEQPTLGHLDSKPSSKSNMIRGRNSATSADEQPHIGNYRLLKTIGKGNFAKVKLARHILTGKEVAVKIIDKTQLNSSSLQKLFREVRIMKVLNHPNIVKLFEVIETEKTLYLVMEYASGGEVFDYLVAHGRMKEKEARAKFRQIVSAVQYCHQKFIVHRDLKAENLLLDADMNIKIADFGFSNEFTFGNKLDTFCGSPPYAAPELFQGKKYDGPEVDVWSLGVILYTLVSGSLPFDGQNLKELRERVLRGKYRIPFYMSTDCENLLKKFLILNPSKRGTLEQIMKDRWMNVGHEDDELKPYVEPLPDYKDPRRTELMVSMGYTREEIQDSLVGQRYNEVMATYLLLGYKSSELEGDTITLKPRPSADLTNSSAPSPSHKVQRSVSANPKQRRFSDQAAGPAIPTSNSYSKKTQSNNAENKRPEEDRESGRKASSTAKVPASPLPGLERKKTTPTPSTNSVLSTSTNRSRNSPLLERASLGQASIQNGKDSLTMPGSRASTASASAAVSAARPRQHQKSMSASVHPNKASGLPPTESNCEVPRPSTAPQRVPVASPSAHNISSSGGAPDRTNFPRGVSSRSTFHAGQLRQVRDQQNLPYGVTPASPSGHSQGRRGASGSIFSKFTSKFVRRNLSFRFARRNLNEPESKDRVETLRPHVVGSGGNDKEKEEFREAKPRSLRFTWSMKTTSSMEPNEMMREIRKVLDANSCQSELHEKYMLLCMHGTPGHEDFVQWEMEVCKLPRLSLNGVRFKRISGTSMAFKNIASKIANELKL
Chain of Proto-oncogene tyrosine-protein kinase receptor Ret ; RET ; P07949 (P07949 whole entry): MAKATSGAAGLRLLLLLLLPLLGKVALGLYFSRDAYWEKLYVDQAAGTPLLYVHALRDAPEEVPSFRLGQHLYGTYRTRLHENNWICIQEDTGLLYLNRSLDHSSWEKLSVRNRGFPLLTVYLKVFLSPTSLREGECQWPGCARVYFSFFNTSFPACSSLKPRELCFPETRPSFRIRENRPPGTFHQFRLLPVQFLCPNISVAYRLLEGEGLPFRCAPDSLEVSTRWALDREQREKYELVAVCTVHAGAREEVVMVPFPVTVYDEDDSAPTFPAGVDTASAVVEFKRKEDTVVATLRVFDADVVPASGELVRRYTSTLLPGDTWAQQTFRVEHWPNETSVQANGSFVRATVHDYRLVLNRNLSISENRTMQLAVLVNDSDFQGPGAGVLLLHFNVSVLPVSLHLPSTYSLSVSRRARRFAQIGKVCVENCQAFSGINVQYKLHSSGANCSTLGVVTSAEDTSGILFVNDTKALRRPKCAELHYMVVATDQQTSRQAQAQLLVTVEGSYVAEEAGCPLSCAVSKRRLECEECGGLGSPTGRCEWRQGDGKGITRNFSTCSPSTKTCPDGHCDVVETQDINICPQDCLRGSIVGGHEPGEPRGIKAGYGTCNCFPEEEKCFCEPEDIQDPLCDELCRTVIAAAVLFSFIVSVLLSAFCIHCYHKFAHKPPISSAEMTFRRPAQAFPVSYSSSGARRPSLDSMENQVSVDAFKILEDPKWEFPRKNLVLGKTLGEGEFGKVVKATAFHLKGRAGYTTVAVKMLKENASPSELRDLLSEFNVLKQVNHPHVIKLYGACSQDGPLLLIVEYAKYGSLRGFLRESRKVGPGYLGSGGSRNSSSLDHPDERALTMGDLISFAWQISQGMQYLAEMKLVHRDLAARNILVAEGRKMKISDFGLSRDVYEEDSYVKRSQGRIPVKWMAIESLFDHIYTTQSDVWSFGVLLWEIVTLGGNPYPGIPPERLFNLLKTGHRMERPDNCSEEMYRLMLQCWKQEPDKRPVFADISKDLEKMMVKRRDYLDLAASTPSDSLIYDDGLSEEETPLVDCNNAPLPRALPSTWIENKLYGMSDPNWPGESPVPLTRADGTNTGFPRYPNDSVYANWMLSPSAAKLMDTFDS
Chain of Tyrosine-protein kinase Lyn ; LYN ; P07948 (P07948 whole entry): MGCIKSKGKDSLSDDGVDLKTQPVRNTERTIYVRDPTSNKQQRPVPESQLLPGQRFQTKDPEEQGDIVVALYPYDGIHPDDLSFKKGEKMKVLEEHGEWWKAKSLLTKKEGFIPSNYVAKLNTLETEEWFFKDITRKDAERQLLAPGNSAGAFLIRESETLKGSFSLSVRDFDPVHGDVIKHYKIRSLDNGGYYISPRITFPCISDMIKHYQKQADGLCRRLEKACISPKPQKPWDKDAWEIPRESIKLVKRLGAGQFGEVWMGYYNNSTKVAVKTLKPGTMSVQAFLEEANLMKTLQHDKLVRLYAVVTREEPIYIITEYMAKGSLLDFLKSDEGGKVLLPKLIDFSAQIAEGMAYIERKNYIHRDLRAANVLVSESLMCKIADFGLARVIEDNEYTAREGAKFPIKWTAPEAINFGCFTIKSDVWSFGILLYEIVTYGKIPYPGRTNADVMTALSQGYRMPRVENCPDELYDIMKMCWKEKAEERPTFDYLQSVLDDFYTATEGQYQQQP
Chain of Mitogen-activated protein kinase kinase kinase kinase 5 ; MAP4K5 ; Q9Y4K4 (Q9Y4K4 whole entry): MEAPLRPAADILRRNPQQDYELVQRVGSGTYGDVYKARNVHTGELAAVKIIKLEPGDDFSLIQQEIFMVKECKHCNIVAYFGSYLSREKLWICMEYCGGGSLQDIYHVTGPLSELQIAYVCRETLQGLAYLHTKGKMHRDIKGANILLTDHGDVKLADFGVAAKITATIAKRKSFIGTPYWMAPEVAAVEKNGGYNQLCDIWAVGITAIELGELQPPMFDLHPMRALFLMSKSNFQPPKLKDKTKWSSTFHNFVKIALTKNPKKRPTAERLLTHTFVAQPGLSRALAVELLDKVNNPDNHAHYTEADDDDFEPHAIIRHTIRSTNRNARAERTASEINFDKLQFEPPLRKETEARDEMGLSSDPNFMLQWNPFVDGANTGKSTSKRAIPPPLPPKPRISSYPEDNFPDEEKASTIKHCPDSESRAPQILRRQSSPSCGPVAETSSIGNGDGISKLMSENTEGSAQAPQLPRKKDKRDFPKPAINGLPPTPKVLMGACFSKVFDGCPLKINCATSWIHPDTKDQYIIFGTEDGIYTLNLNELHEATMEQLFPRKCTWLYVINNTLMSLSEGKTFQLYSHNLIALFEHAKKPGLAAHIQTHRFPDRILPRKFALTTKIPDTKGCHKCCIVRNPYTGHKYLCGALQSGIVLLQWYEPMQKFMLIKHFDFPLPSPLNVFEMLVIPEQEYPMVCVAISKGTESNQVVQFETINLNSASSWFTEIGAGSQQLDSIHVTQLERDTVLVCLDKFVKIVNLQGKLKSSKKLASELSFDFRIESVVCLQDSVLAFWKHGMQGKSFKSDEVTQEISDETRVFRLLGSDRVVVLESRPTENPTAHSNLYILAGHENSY
Chain of Mitogen-activated protein kinase 9 ; MAPK9 ; P45984 (P45984 whole entry, canonical isoform): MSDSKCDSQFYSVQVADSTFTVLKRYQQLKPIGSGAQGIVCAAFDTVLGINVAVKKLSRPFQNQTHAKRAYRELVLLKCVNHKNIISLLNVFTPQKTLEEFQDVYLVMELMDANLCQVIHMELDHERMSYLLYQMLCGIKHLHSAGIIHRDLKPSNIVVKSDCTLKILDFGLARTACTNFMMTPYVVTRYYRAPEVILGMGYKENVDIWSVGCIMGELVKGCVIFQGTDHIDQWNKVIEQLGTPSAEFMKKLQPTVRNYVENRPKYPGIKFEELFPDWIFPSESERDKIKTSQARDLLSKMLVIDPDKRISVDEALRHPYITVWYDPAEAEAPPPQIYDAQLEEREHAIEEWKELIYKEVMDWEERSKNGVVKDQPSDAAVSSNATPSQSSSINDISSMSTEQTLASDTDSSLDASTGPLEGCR

On to `COc1cc(F)ccc1-c1cc(Nc2cc(CS(C)(=N)=O)ccn2)ncc1F` (stereo not shown) [BAY-1251152], for which the remaining activity at 10 µM in [1] (setting [24]) stood at 55.3%; in experiment [2] (setting [24]), 94%; in [3] (setting [24]), 103%; in experiment [4] (setting [24]) it was 142%; in experiment [5] (setting [24]), 85%; in experiment [6] (setting [24]) it was 131%. In addition, the remaining activity at 10 µM worked out at 127% in experiment [7] (setting [24]); 95.9% in [8] (setting [24]); 102% in [9] (setting [24]); 79.4% in [10] (setting [24]); 107% in [11] (setting [24]); 74.4% in experiment [12] (setting [24]). Besides, the remaining activity at 10 µM in experiment [13] (setting [24]) was found to be 100%; in experiment [14] (setting [24]) it was 99.3%; in experiment [15] (setting [24]), 110%; in experiment [16] (setting [24]) it was 113%; in experiment [17] (setting [24]), 112%; in [18] (setting [24]), 96.1%. In addition, the remaining activity at 10 µM in experiment [19] (setting [24]) is 98.1%; in experiment [20] (setting [24]), 96.1%; in experiment [21] (setting [24]), 87.9%; in experiment [22] (setting [24]), 113%; in [23] (setting [24]), 145%.

On to `COc1cc(F)ccc1-c1ncnc(Nc2cccc(C[S@](C)(=N)=O)c2)n1` [BAY-1143572], for which the remaining activity at 10 µM was 97.6% in [1] (setting [25]); 106% in [2] (setting [25]); 110% in experiment [3] (setting [25]); 178% in experiment [4] (setting [25]); 80.9% in experiment [5] (setting [25]); 137% in [6] (setting [25]). Besides, the remaining activity at 10 µM in experiment [7] (setting [25]) came to 125%; in [8] (setting [25]) it was 91.5%; in experiment [9] (setting [25]), 132%; in experiment [10] (setting [25]) it was 82%; in experiment [11] (setting [25]), 108%; in experiment [12] (setting [25]), 80%. Besides, the remaining activity at 10 µM was 94.1% in experiment [13] (setting [25]); 87.7% in [14] (setting [25]); 105% in [15] (setting [25]); 115% in [16] (setting [25]); 110% in experiment [17] (setting [25]); 107% in experiment [18] (setting [25]). For the same compound, the remaining activity at 10 µM in [19] (setting [25]) is 100%; in experiment [20] (setting [25]) it was 102%; in [21] (setting [25]) it was 97%; in experiment [22] (setting [25]), 115%; in experiment [23] (setting [25]), 132%.
